# Assay results reported in article PMC3829888, “A Novel Quantitative Kinase Assay Using Bacterial Surface Display and Flow Cytometry” (PLoS ONE, 2013).
# Residues, ends and D or L forms follow the SMILES beside them.
# Key:
# Abl TK = target: T1, Abl TK (Homo sapiens, UniProt P00519); experiment: BacKin assay, inhibition and substrate competition (surface-displayed abltide phosphorylation, flow cytometry); type: biochemical; conditions: for IC50: 0.5 U/mL Abl kinase, 30 min at 37°C, flow cytometry, biotin-anti-PY/SAPE, average of three independent experiments±SD
# T1 construct: purchased Merck Millipore
# [1] = one U = 1 nmol of phosphate incorporated into 50 µM abltide per minute at 30°C, 100 µM ATP; ref Merck Millipore; cited from earlier work
# Procedure: The kinase activity of Bcr-Abl TK is located in the Abl domain (Figure 1). […] The activity of Abl TK was first examined using LC-MS. The time-course for phosphorylation of 60 µM of soluble abltide was followed with 0.5 U/mL Abl TK in kinase buffer (50 mM Tris-HCl, 10 mM MgCl2, 0.1 mM EDTA, 2 mM dithiothreitol and 0.01% (v/v) Brij 35, NEBuffer, New England BioLa ...
# Abl kinase [2] = conditions: in words
# Abl kinase [3] = experiment: Validation of BacKin assay: fluorescence of kinase-treated displaying cells by flow cytometry; type: biochemical, Human; conditions: after 30 min incubation with Abl kinase; 585/42 nm
# T1 sequence (P00519 whole entry): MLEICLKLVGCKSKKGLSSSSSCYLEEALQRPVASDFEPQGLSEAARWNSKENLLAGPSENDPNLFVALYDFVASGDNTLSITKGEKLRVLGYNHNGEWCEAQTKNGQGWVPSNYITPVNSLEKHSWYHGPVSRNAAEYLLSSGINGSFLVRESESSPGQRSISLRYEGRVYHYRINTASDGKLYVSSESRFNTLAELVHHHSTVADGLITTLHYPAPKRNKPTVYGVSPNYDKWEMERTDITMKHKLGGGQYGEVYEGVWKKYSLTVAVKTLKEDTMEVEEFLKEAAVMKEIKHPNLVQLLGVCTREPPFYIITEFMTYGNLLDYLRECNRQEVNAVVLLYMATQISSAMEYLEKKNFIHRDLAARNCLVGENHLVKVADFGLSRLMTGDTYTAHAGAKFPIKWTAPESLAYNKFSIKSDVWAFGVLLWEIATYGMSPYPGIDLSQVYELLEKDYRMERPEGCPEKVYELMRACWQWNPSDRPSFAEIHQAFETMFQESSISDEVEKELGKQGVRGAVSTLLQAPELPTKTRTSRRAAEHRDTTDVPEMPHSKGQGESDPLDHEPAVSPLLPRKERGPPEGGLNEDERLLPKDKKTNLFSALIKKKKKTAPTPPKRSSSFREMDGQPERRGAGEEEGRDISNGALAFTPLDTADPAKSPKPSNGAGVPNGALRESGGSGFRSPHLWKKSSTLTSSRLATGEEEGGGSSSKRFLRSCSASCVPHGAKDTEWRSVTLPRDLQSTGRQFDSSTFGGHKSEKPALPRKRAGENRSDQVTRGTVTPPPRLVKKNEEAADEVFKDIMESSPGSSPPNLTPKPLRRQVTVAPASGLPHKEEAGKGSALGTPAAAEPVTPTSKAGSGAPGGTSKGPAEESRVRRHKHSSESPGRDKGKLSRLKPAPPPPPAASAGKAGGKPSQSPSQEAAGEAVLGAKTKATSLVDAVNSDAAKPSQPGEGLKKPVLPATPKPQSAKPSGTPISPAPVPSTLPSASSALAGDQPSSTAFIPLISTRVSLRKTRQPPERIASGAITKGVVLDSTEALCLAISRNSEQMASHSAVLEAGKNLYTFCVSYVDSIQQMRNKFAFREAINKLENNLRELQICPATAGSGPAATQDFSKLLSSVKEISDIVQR
compound,measurement,setting,value
CC[C@H](C)[C@H](NC(=O)[C@H](C)NC(=O)[C@@H](N)CCC(=O)O)C(=O)N[C@@H](Cc1ccc(O)cc1)C(=O)N[C@@H](C)C(=O)N[C@@H](C)C(=O)N1CCC[C@H]1C(=O)N[C@@H](Cc1ccccc1)C(=O)N[C@@H](C)C(=O)N[C@@H](CCCCN)C(=O)N[C@@H](CCCCN)C(=O)N[C@@H](CCCCN)C(=O)O [abltide] (H-EAIYAAPFAKKK-OH),IC50,Abl TK; 50 µM ATP,21.5 ± 2.64 µM
same,IC50,Abl TK; 500 µM ATP,37.5 ± 3.95 µM
"Abl TK: Human active Abl (121 kDa, 1067 U/mg, Merck Millipore)",specific activity,[1],1067 U/mg
"EAIFAAPYAKKK [[Y4F,F8Y], abltide analogue in which the Tyr4 and Phe8 residues are swapped; negative control]",phosphorylation by Abl kinase,Abl kinase [2],is not phosphorylated by Abl kinase
same,inhibition of kinase activity / competition,"Abl TK; in words, peptide concentrations ranging from 64 to 0.25 µM, 0.5 U/mL kinase, 30 min, analogue tested with 500 µM ATP, average of two replicates",did not inhibit kinase activity in the concentration range tested
abltide-displaying cells: E. coli MC1061 displaying KKGEAIYAAPFA fused via spacer GGQSGQ to the N-terminus of the eCPX display scaffold,percentage of fluorescent cells,Abl kinase [3],~96%
